The values that follow come from patent US20100022527A1, “BIPHENYL SUBSTITUTED SPIROTETRONIC ACIDS AND THEIR USE FOR THE TREATMENT OF RETROVIRAL DISEASES” (priority 2006, published 2010).

A value given as a limit tells only on which side of the number the result lay.

This assay addresses T1, HIV-1 protease wild type protein (Human immunodeficiency virus type 1 group M subtype B, UniProt P04585).
T1 construct: HIV-1 protease wild type protein; purchased AscoProt Biotech, Prague, Czech Republic
Briefly: Biochemical protease assay. The method, then:
For the determination of their in vitro activity on HIV proteases the test substances are dissolved in DMSO and serially diluted. In each case 0.5 μl of substance dilution, 20 μl of 0.2-1 nM HIV-1 protease wild type or mutant protein (e.g., multiresistant isolate “35513”: L10I, I15V, L19I, K20R, E35D, M36I, R41K, I54V, L63P, H69K, A71V, T74P, I84V, L89M, L90M, 193L, AscoProt Biotech, Prague, Czech Republic) in buffer 1 (50 mM sodium acetate pH 4.9, 0.02% BSA, 0.1 mM EDTA, 0.5 mM DTT) and 20 μl of 8 μM substrate (M1865 from Bachem, Bubendorf, Switzerland; Matayoshi et al., Science 1990, 247, 954-8) in buffer 1 are added successively to a 384 well microtiter plate (Greiner, Frickenhausen, Germany), incubated for 60-180 minutes at 32° C. and the fluorescence is measured (e.g., Tecan Safire, 340 nm extinction, 520 nm emission). IC50 values are determined by graphical plotting the substance concentration against the percentage inhibition.
Take `Cc1cc(-c2cccc(NC(=O)CCCN(C)C)c2)c(Cl)cc1C1=C(O)C2(CCCCC2)OC1=O` [Example 181]: the IC50 (commonly the midpoint of a concentration-inhibition curve) was at most 100 nM.
The figure for `Cc1cc(-c2ccccc2)c(Cl)cc1C1=C(O)C2(CCCCC2)OC1=O` [Example 17, 3-(2-Chloro-5-methylbiphenyl-4-yl)-4-hydroxy-1-oxaspiro[4.5]dec-3-en-2-one] is at most 100 nM.
As to `CCOC1CCCCC12OC(=O)C(c1cc(C)c(-c3ccc(Cl)cc3)cc1C)=C2O` (centres unmarked) [Example 14], the IC50 is at most 100 nM.
The figure for `Cc1cc(-c2cccc(S(C)(=O)=O)c2)c(Cl)cc1C1=C(O)C2(CCC3CCCC3C2)OC1=O` (centres unmarked) [Example 84] is at most 100 nM; for `Cc1cc(-c2cccc(S(C)(=O)=O)c2)c(Cl)cc1C1=C(O)C2(CCCN(CC(=O)NCc3ccc(OC(F)(F)F)cc3)C2)OC1=O` (centres unmarked) [Example 166] it is at most 100 nM; for `Cc1ccc(CNC(=O)CN2CCCC3(C2)OC(=O)C(c2cc(Cl)c(-c4cccc(S(C)(=O)=O)c4)cc2C)=C3O)cc1` (centres unmarked) [Example 133] it is at most 100 nM.
The figure for `Cc1cc(-c2ccc(NS(C)(=O)=O)cc2)c(Cl)cc1C1=C(O)C2(CCC3CCCC3C2)OC1=O` (centres unmarked) [Example 180] is at most 100 nM; for `Cc1cc(-c2cccc(S(C)(=O)=O)c2)c(Cl)cc1C1=C(O)C2(CCN(C(=O)Cc3ccc(S(=O)(=O)O)cc3)CC2)OC1=O` [Example 143] it is at most 100 nM; for `Cc1cc(-c2cccc(NS(=O)(=O)c3cccnc3)c2)c(Cl)cc1C1=C(O)C2(CCCCC2)OC1=O` [Example 192] it is at most 100 nM.
The figure for `Cc1cc(-c2cccc(S(C)(=O)=O)c2)c(Cl)cc1C1=C(O)C2(CCCN(CC(=O)Nc3ccccc3)C2)OC1=O` (centres unmarked) [Example 126] is at most 100 nM; for `COCCNC(=O)CN1CCCC2(C1)OC(=O)C(c1cc(Cl)c(-c3cccc(S(C)(=O)=O)c3)cc1C)=C2O` (centres unmarked) [Example 116] it is at most 100 nM.
Compound `Cc1cc(-c2cccc(OC(F)(F)F)c2)c(Cl)cc1C1=C(O)C2(CCCCC2)OC1=O` [Example 38] showed an IC50 of at most 100 nM.
To `COc1ccc(-c2ccc(C3=C(O)C4(CCCCC4)OC3=O)c(C)c2)cc1` [Example 62] belongs at most 100 nM.
`Cc1cc(-c2cccc(S(C)(=O)=O)c2)c(Cl)cc1C1=C(O)C2(CCCN(CC(=O)NCc3ccsc3)C2)OC1=O` (centres unmarked) [Example 167] displayed an IC50 of at most 100 nM.
To `Cc1cc(C2=C(O)C3(CCCCC3)OC2=O)c(Cl)cc1-c1ccc(Cl)cc1` [Example 70] belongs at most 100 nM; to `Cc1cc(-c2cccc(S(C)(=O)=O)c2)c(Cl)cc1C1=C(O)C2(CCN(C(=O)Cc3ccc(OC(F)(F)F)cc3)CC2)OC1=O` [Example 144], at most 100 nM; to `Cc1cc(-c2ccc(C(=O)O)cc2)c(Cl)cc1C1=C(O)C2(CCCCC2)OC1=O` [Example 30], at most 100 nM.
Consider `Cc1cc(-c2cccc(NS(=O)(=O)Cc3ccccc3)c2)c(Cl)cc1C1=C(O)C2(CCCCC2)OC1=O` [Example 191], for which the IC50 is at most 100 nM.
Compound `COC1CCC2(CC1)OC(=O)C(c1cc(C)c(-c3ccc(Cl)cc3)cc1C)=C2O` (centres unmarked) [Example 58] gave an IC50 of at most 100 nM.
To `Cc1cc(-c2ccc(Cl)cc2)c(C)cc1C1=C(O)C2(CCCCCC2)OC1=O` [Example 10] belongs at most 100 nM; to `Cc1cc(-c2ccc(N)cc2)c(Cl)cc1C1=C(O)C2(CCCCC2)OC1=O` [Example 171, 3-(4′-Amino-2-chloro-5-methylbiphenyl-4-yl)-4-hydroxy-1-oxaspiro[4.5]dec-3-en-2-one], at most 100 nM; to `Cc1cc(-c2cccc(S(C)(=O)=O)c2)c(Cl)cc1C1=C(O)C2(CCN(C(=O)OCC(C)(C)C)CC2)OC1=O` [Example 152], at most 100 nM.
The figure for `Cc1cc(-c2cccc(S(C)(=O)=O)c2)c(Cl)cc1C1=C(O)C2(CCN(C(=O)CCCC(C)C)CC2)OC1=O` [Example 139] is at most 100 nM.
The figure for `Cc1cc(-c2ccc(Cl)cc2)ccc1C1=C(O)C2(CCCCC2)OC1=O` [Example 61] is at most 100 nM.
Turning to `Cc1ccc(-c2cc(C)c(C3=C(O)C4(CCCCC4)OC3=O)cc2Cl)cc1` [Example 22], the IC50 was at most 100 nM.
To `COC1CCC2(CC1)OC(=O)C(c1cc(Cl)c(-c3ccccc3)cc1C)=C2O` (centres unmarked) [Example 53] belongs at most 100 nM; to `Cc1cc(-c2cccc(S(C)(=O)=O)c2)c(Cl)cc1C1=C(O)C2(CCN(C(=O)CCc3ccc(S(C)(=O)=O)cc3)CC2)OC1=O` [Example 109], at most 100 nM.
The figure for `COC1CCC2(CC1)OC(=O)C(c1cc(C)c(-c3cccc(C(F)(F)F)c3)cc1C)=C2O` (centres unmarked) [Example 57] is at most 100 nM; for `Cc1cc(-c2cccc(C(=O)NCCC#N)c2)c(Cl)cc1C1=C(O)C2(CCCCC2)OC1=O` [Example 51] it is at most 100 nM.
The figure for `CCOc1ccccc1-c1cc(C)c(C2=C(O)C3(CCC(OC)CC3)OC2=O)cc1Cl` (centres unmarked) [Example 55] is at most 100 nM.
`Cc1cc(-c2ccccc2)c(Cl)cc1C1=C(O)C2(CCCC2)OC1=O` [Example 201] returned a 50% inhibitory concentration (IC50) of at most 100 nM.
The figure for `Cc1cc(-c2ccc(F)c([N+](=O)[O-])c2)c(Cl)cc1C1=C(O)C2(CCCCC2)OC1=O` [Example 48] is at most 100 nM.
To `Cc1cc(-c2cccc(S(C)(=O)=O)c2)c(Cl)cc1C1=C(O)C2(CCN(C(=O)OCc3ccccc3)CC2)OC1=O` [Example 72, benzyl 3-[2-chloro-5-methyl-3′-(methylsulfonyl)biphenyl-4-yl]-4-hydroxy-2-oxo-1-oxa-8-azaspiro[4.5]dec-3-ene-8-carboxylate] belongs at most 100 nM; to `Cc1cc(-c2cccc(NC(=O)CN(C)C)c2)c(Cl)cc1C1=C(O)[C@]2(CC[C@@H]3CCC[C@@H]3C2)OC1=O` [Example 182], at most 100 nM; to `Cc1cc(-c2cccc(NS(C)(=O)=O)c2)c(Cl)cc1C1=C(O)C2(CCN(C(=O)OCc3ccccc3)CC2)OC1=O` [Example 91], at most 100 nM.
The figure for `Cc1cc(-c2cccc(C#N)c2)c(Cl)cc1C1=C(O)C2(CCCCC2)OC1=O` [Example 37] is at most 100 nM; for `COc1ccc(CCCC(=O)N2CCC3(CC2)OC(=O)C(c2cc(Cl)c(-c4cccc(S(C)(=O)=O)c4)cc2C)=C3O)cc1` [Example 141] it is at most 100 nM; for `Cc1cc(-c2cccc(S(C)(=O)=O)c2)c(Cl)cc1C1=C(O)C2(CCN(C(=O)CCCS(N)(=O)=O)CC2)OC1=O` [Example 140] it is at most 100 nM.
`Cc1cc(-c2cccc(S(C)(=O)=O)c2)c(Cl)cc1C1=C(O)C2(CCCN(Cc3nc4ccccc4[nH]3)C2)OC1=O` (centres unmarked) [Example 99] came in with an IC50 of at most 100 nM.
To `Cc1cc(-c2cccc(S(C)(=O)=O)c2)c(Cl)cc1C1=C(O)C2(CCCN(C(C)C3=NOCCO3)C2)OC1=O` (centres unmarked) [Example 102] belongs at most 100 nM.
The figure for `Cc1cc(-c2cccc(NS(C)(=O)=O)c2)c(Cl)cc1C1=C(O)C2(CCCC2)OC1=O` [Example 202] is at most 100 nM; for `CCN(CC)C(=O)N1CCC2(CC1)OC(=O)C(c1cc(Cl)c(-c3cccc(S(C)(=O)=O)c3)cc1C)=C2O` [Example 157] it is at most 100 nM.
In the case of `Cc1cc(-c2ccc(Cl)cc2)c(C)cc1C1=C(O)C2(CCC3CCCC3C2)OC1=O` (centres unmarked) [Example 12], the IC50 is at most 100 nM.
`Cc1cc(-c2cccc(S(C)(=O)=O)c2)c(Cl)cc1C1=C(O)C2(CCCN(C(=O)/C=C\c3c[nH]cn3)C2)OC1=O` (centres unmarked) [Example 123]: the IC50 is at most 100 nM.
The figure for `Cc1cc(-c2ccc(OC(F)(F)F)cc2)c(Cl)cc1C1=C(O)C2(CCCCC2)OC1=O` [Example 35] is at most 100 nM.
Compound `Cc1cc(-c2cccc(S(C)(=O)=O)c2)c(Cl)cc1C1=C(O)C2(CCN(C(=O)CCc3cccnc3)CC2)OC1=O` [Example 147] registered an IC50 of at most 100 nM.
The figure for `CCOc1cc(-c2cccc(S(C)(=O)=O)c2)c(C)cc1C1=C(O)C2(CCCCC2)OC1=O` [Example 93] is at most 100 nM.
To `CCCS(=O)(=O)Nc1cccc(-c2cc(C)c(C3=C(O)C4(CCCCC4)OC3=O)cc2Cl)c1` [Example 177] belongs at most 100 nM; to `Cc1cc(-c2cccc(S(C)(=O)=O)c2)c(Cl)cc1C1=C(O)C2(CCCCCC2)OC1=O` [Example 198], at most 100 nM; to `Cc1cc(-c2cccc([N+](=O)[O-])c2)c(Cl)cc1C1=C(O)C2(CCCCC2)OC1=O` [Example 40], at most 100 nM.
The figure for `Cc1cc(-c2cccc(S(C)(=O)=O)c2)c(Cl)cc1C1=C(O)C2(CCCN(CC(=O)NC(C)C)C2)OC1=O` (centres unmarked) [Example 101] is at most 100 nM; for `Cc1cc(-c2cccc(S(C)(=O)=O)c2)c(Cl)cc1C1=C(O)C2(CCCN(CC(=O)NCc3ccncc3)C2)OC1=O` (centres unmarked) [Example 161, 2-{3-[2-Chloro-5-methyl-3′-(methylsulfonyl)biphenyl-4-yl]-4-hydroxy-2-oxo-1-oxa-7-azaspiro[4.5]dec-3-en-7-yl}-N-(pyridin-4-ylmethyl)acetamide] it is at most 100 nM.
As to `CC(=O)N1CCC2(CC1)OC(=O)C(c1cc(Cl)c(-c3cccc(S(C)(=O)=O)c3)cc1C)=C2O` [Example 158], the IC50 was at most 100 nM.
To `Cc1cc(-c2cccc(S(C)(=O)=O)c2)c(Cl)cc1C1=C(O)C2(CCCN(C(=O)CCC(=O)c3ccccn3)C2)OC1=O` (centres unmarked) [Example 108] belongs at most 100 nM; to `Cc1cc(-c2ccc(Cl)cc2)c(C)cc1C1=C(O)C2(CCC(C)C(C)C2)OC1=O` (centres unmarked) [Example 9], at most 100 nM.
As to `COc1cccc(-c2cc(Cl)c(C3=C(O)C4(CCCCC4)OC3=O)cc2C)c1` [Example 69], the IC50 was at most 100 nM.
